In assay [1] the test system is THP-1. Kind of assay: Inhibition of Class IIa/8 HDAC in human THP-1 cells at 100 uM preincubated for 18 hrs followed by substrate addition and measured after 3 hrs by fluorescence based microplate reader assay relative to control. It counts as cell-based. The following applies: time 21.0 hrs, values are per cent of control.
A short description of assay [2]: Inhibition of Class IIa/8 HDAC in human THP-1 cells preincubated for 18 hrs followed by substrate addition and measured after 3 hrs by fluorescence based microplate reader assay. It counts as cell-based.
Another assay concerns the target T1, Histone deacetylase 11 (Homo sapiens, UniProt Q96DB2).
T1 sequence (Q96DB2 whole entry): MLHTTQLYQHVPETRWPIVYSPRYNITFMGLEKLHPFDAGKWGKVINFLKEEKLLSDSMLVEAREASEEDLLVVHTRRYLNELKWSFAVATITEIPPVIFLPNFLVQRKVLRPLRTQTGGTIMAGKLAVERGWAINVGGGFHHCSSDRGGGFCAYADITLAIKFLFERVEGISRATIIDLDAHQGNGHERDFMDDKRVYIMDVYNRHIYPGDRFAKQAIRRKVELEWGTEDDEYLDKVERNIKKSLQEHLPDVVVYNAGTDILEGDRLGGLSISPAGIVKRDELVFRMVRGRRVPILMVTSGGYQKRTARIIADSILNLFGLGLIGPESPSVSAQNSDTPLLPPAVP
Nature of the assay: Inhibition of HDAC11 (unknown origin).

Assay [3] deals with THP-1. Nature of the assay: Induction of apoptosis in human THP-1 cells assessed as subG1 population at 5.7 uM incubated for 48 hrs by Propidium iodide staining based flow cytometric analysis. It counts as functional, cell-based.
Assay [4] relates to THP-1. Nature of the assay: Antiproliferative activity against human THP-1 cells assessed as reduction in cell viability at 100 uM incubated for 72 hrs by MTT assay relative to control. It counts as functional.
In assay [5] the test system is CAL-27. Kind of assay: Antiproliferative activity against human CAL-27 cells overexpressing HDAC4 assessed as inhibition of cell growth incubated for 72 hrs by MTT assay. The settings on record: CAL-27, 72 h. It counts as functional, cell-based.
The test system of assay [6] is THP-1. Kind of assay: Synergistic induction of apoptosis in human THP-1 cells assessed as increase in caspase3/7 activation at 5.7 uM incubated for 48 hrs in the presence of 7.9 nM bortezomib by Hoechst 33342 staining based assay. It counts as functional, cell-based.
The test system of assay [7] is THP-1. Kind of assay: Synergistic induction of apoptosis in human THP-1 cells assessed as increase in subG1 population at 5.7 uM incubated for 48 hrs in the presence of 7.9 nM bortezomib by Propidium iodide staining based flow cytometric analysis. It counts as functional, cell-based.
Assay [8] concerns THP-1. Nature of the assay: Induction of apoptosis in human THP-1 cells assessed as caspase3/7 activation at 5.7 uM incubated for 48 hrs by Hoechst 33342 staining based assay. It counts as functional, cell-based.
A further assay concerns the target Histone deacetylase 3 (Homo sapiens, UniProt O15379). Nature of the assay: Inhibition of HDAC3 (unknown origin).
The test system of assay [9] is CAL-27. Kind of assay: Antiproliferative activity against human CAL-27 cells without HDAC4 expression assessed as inhibition of cell growth incubated for 72 hrs by MTT assay. It counts as functional, cell-based. The settings on record: CAL-27, 72 h. In general terms: Tetrazolium assays rely on reduction of a dye to a coloured formazan, in cell work by metabolically active cells.

The nature of assay [10]: Inhibition of Class I/IIb HDAC in human THP-1 cells preincubated for 18 hrs followed by substrate addition and measured after 3 hrs by fluorescence based microplate reader assay. It counts as cell-based.
The subject of assay [11] is THP-1. Nature of the assay: cells. The settings on record: Homo sapiens, THP-1, 72 h.
Description: Antiproliferative activity against human THP-1 cells assessed as inhibition of cell growth incubated for 72 hrs by MTT assay
The target of another assay is Histone deacetylase 1 (Homo sapiens, UniProt Q13547). Kind of assay: Inhibition of HDAC1 (unknown origin).
Sequence of Histone deacetylase 1 (Q13547 whole entry): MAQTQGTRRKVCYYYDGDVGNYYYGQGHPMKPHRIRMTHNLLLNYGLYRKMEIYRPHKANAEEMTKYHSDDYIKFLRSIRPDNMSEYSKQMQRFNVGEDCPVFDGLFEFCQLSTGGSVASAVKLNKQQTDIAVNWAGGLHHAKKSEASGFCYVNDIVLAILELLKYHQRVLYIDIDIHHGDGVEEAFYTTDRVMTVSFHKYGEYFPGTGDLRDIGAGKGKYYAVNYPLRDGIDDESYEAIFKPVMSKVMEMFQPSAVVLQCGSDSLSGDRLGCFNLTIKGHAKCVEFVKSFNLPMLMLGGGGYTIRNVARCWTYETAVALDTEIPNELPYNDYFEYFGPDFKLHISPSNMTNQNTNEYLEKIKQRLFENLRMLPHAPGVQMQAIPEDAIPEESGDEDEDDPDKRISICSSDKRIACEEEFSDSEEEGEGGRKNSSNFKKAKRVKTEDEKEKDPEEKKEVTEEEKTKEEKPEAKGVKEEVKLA
For the next assay, the target named is Histone deacetylase 5 (Homo sapiens, UniProt Q9UQL6). Kind of assay: Inhibition of HDAC5 (unknown origin).
Sequence of Histone deacetylase 5 (Q9UQL6 whole entry): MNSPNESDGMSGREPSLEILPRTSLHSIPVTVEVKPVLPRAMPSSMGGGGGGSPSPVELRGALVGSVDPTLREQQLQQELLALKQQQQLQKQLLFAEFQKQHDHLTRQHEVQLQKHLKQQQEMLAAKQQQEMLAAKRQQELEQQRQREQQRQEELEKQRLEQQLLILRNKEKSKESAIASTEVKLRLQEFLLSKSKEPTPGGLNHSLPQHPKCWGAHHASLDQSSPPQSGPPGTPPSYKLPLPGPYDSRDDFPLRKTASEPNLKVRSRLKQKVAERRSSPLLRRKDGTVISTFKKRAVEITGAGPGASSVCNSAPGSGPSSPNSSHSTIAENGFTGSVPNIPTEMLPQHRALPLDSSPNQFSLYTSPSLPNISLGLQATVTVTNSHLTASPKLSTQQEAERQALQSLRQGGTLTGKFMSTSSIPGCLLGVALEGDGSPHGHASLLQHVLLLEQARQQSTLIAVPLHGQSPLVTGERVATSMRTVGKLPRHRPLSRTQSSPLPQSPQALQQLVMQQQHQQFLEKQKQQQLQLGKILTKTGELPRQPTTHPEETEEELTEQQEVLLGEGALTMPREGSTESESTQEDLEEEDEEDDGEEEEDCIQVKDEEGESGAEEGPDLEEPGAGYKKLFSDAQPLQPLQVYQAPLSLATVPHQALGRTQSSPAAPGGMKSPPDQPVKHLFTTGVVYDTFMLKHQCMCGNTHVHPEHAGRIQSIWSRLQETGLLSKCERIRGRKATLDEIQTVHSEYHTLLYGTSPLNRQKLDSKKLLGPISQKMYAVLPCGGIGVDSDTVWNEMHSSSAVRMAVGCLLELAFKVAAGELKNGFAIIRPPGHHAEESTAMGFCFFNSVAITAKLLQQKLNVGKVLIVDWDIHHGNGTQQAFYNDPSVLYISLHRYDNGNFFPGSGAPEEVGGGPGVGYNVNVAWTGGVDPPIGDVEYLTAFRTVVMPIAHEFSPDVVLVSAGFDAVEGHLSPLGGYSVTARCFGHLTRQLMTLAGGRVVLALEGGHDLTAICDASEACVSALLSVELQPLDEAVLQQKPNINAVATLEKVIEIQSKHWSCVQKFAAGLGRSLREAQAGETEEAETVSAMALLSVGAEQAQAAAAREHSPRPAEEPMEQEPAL
Assay [12] concerns THP-1. Kind of assay: Inhibition of Class I/IIb HDAC in human THP-1 cells at 100 uM preincubated for 18 hrs followed by substrate addition and measured after 3 hrs by fluorescence based microplate reader assay relative to control. The settings on record: time 21.0 hrs. It counts as cell-based.
Assay [13] concerns THP-1. Kind of assay: Induction of apoptosis in human THP-1 cells assessed as subG1 population at 5 uM incubated for 48 hrs by Propidium iodide staining based flow cytometric analysis. It counts as functional, cell-based.
Assay [14] deals with THP-1. Nature of the assay: Synergistic induction of apoptosis in human THP-1 cells assessed as increase in subG1 population at 5 uM incubated for 48 hrs in the presence of 7.9 nM bortezomib by Propidium iodide staining based flow cytometric analysis. It counts as functional, cell-based. (In general: In flow cytometry, cells or beads pass a laser one at a time.)
Assay [15] concerns THP-1. Nature of the assay: Induction of apoptosis in human THP-1 cells assessed as caspase3/7 activation at 5 uM incubated for 48 hrs by Hoechst 33342 staining based assay. It counts as functional, cell-based.
Assay [16] has as its system THP-1. Kind of assay: Synergistic induction of apoptosis in human THP-1 cells assessed as increase in caspase3/7 activation at 5 uM incubated for 48 hrs in the presence of 7.9 nM bortezomib by Hoechst 33342 staining based assay. It counts as functional, cell-based.
The test system of assay [17] is THP-1. Nature of the assay: Synergistic effect on p21 protein expression in human THP-1 cells assessed as increase in p21 protein expression level at 5 uM incubated for 24 hrs in the presence of 7.9 nM bortezomib by Western blot analysis. It counts as functional, cell-based. (Immunoblotting shows a protein as a band on a membrane.)
Assay [18] has as its system THP-1. Kind of assay: Effect on p21 protein expression in human THP-1 cells assessed as increase in p21 protein expression level at 5 uM incubated for 24 hrs by Western blot analysis. It counts as functional, cell-based.
A short description of assay [19]: Effect on p21 mRNA expression in human THP-1 cells assessed as fold increase in p21 mRNA expression at 7.9 uM incubated for 24 hrs by RT-PCR analysis. It counts as functional.
Assay [20] relates to THP-1. Kind of assay: Effect on p21 protein expression in human THP-1 cells assessed as increase in p21 protein expression level at 7.9 uM incubated for 24 hrs by Western blot analysis. It counts as functional, cell-based.

Structures are written as SMILES. Active and inactive are the calls of the source. The rule behind the calls is not given here. Where only a bound is given, the exact number is not on record here.

The values below come from ChEMBL document CHEMBL5537119 (Eur J Med Chem, 2024).

In general, residual activity refers to the signal under treatment as a percentage of the control signal. As a reminder, the IC50 is the concentration that inhibits the measured activity by half. For orientation: inhibition means the percentage by which the read-out fell short of the control. The low end stands for a weak effect, the high end for a strong effect.

Sequence of Histone deacetylase 3 (O15379 whole entry): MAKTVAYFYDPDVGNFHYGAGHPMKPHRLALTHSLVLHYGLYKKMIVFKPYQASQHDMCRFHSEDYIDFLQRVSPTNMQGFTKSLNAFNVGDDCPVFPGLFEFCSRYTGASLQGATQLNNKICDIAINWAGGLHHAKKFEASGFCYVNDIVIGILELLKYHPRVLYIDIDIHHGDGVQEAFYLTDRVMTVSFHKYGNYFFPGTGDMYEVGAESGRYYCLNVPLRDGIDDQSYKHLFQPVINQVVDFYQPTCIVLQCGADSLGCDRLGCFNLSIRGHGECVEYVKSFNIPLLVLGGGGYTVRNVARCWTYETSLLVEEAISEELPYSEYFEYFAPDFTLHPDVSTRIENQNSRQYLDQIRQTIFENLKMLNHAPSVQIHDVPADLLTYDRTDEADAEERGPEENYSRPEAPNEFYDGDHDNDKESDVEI

For the compound `O=C(NOCCN1CCCCC1)c1ccc(-c2noc(C(F)(F)F)n2)cc1`, the residual activity in the assay on THP-1 [1] turned out to be 101%. Moreover, the IC50 in assay [2] was 0.59 µM; against Histone deacetylase 11 it was over 100 µM; in the assay on CAL-27 [5] it was 69.8 µM; on Histone deacetylase 3, 15 µM; with CAL-27 [9], 77.7 µM; in assay [10], 64.2 µM. In addition, the IC50 in the assay with THP-1 [11] was about 100 µM; at Histone deacetylase 1, 20.7 µM; on Histone deacetylase 5, 0.268 µM. The result in the assay on THP-1 [3] and with THP-1 [8] was inactive. Besides, the Activity with THP-1 [4] is recorded as 45%. Besides, the result in the assay on THP-1 [6] and in the assay with THP-1 [7] was Active. Moreover, the inhibition with THP-1 [12] turned out to be 70%.
As for `O=C(NCC1(c2nc(-c3ccccc3)cs2)CCOCC1)c1cccc(-c2noc(C(F)(F)F)n2)c1`, the result with THP-1 [13] and in the assay with THP-1 [15] was inactive. For the same compound, the Activity with THP-1 [4] was 100%. Also, the result with THP-1 [14], in the assay with THP-1 [16], in the assay with THP-1 [17] and in the assay with THP-1 [18] was Active.
In the case of `CC(C)C[C@H](NC(=O)[C@H](Cc1ccccc1)NC(=O)c1cnccn1)B(O)O` [BORTEZOMIB], the “fold change (FC)” value in assay [19] was 2.5. The IC50 amounted to 4.73 µM in the assay with CAL-27 [5], 7.6 µM with CAL-27 [9] and 0.00628 µM with THP-1 [11]. The outcome with THP-1 [20] was Active.
